Among the data in ChEMBL document CHEMBL4342482 (ACS Med Chem Lett, 2020) are IC50 and Activity values, retold here.

SMILES strings stand for the structures. Calls of active or inactive are those of the source. No cut-off for these calls is given here. A value given as a limit tells only on which side of the number the result lay.

Experiment [1] addresses Type II inositol 1,4,5-trisphosphate 5-phosphatase (Homo sapiens, UniProt P32019). The experiment can be described thus: Inhibition of recombinant human C-terminal His-tagged INPP5B (259 to 563 residues) expressed in Escherichia coli BL21 (DE3) incubated for 5 mins using Ins(1,4,5)P3 as substrate by malachite green reagent based phosphate assay.
The target of experiment [2] is T1, Inositol polyphosphate-5-phosphatase A (Homo sapiens, UniProt Q14642).
T1 sequence (Q14642 whole entry): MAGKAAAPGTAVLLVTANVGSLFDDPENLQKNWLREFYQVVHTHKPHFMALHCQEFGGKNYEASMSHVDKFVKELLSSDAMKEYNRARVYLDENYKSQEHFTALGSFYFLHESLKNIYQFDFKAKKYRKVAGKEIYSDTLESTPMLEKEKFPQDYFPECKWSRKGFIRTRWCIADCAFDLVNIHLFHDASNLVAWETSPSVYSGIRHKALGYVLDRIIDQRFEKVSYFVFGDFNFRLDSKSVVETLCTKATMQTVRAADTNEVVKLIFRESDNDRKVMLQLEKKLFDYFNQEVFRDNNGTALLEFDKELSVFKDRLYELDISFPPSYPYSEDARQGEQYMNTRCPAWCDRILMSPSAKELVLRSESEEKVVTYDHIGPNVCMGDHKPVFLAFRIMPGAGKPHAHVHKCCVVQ
The experiment can be described thus: Inhibition of recombinant human brain INPP5A expressed in Escherichia coli incubated for 10 mins by malachite green reagent based phosphate assay.

The target in experiment [3] is T2, Phosphatidylinositol 3,4,5-trisphosphate 5-phosphatase 2 (Homo sapiens, UniProt O15357).
T2 sequence (O15357 whole entry): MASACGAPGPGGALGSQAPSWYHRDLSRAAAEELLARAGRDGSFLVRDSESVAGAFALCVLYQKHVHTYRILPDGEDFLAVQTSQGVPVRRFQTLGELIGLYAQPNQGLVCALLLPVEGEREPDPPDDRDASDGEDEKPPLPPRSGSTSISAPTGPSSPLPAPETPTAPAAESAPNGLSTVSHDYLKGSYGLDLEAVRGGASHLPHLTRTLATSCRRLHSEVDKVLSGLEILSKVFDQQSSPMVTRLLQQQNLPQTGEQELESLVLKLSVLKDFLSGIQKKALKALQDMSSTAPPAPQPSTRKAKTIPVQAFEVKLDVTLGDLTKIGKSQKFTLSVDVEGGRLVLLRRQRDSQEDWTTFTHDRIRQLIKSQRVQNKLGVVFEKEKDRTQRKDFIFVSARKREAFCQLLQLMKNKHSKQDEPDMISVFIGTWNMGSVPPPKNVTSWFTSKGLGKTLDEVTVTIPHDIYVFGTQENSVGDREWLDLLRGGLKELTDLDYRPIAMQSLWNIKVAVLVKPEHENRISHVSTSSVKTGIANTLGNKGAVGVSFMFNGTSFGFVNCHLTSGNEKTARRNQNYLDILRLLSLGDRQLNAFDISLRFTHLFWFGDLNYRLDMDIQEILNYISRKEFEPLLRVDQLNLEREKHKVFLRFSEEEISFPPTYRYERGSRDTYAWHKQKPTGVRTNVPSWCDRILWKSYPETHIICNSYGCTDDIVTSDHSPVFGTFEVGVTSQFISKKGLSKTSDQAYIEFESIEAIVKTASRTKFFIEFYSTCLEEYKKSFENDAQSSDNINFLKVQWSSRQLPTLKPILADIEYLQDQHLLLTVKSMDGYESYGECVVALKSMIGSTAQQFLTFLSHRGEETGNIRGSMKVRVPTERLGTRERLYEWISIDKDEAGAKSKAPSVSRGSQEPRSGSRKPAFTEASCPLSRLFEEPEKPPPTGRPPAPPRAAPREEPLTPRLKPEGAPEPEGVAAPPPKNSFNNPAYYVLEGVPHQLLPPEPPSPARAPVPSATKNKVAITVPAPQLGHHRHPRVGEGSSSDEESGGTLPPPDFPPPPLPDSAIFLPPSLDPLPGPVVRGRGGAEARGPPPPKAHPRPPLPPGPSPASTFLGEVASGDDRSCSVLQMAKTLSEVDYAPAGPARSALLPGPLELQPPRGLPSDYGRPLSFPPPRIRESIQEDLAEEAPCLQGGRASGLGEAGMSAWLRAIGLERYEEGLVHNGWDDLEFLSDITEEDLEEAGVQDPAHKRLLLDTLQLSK
In words: Displacement of 2FAMInsP5 from recombinant human N-terminal His-tagged SHIP2 (419 to 832 residues) expressed in Escherichia coli Rosetta2 (DE3) cells by fluorescence polarization assay.

For experiment [4], the target named is T2, Phosphatidylinositol 3,4,5-trisphosphate 5-phosphatase 2. The experiment can be described thus: Displacement of Ins(1,3,4,5)P4 from recombinant human N-terminal His-tagged SHIP2 (419 to 832 residues) expressed in Escherichia coli BL21 (DE3).
Experiment [5] has as its target T3, Phosphatidylinositol 3,4,5-trisphosphate 5-phosphatase 2 (Homo sapiens) (UniProt O15357).
T3 sequence (whole entry): T2 sequence (O15357 whole entry)
In words: Binding affinity to recombinant human N-terminal His-tagged SHIP2 (419 to 832 residues) expressed in Escherichia coli Rosetta2 (DE3) cells assessed as increase in release of phosphate at 100 uM incubated for 10 mins by phosphate release assay.

The target of experiment [6] is T3, Phosphatidylinositol 3,4,5-trisphosphate 5-phosphatase 2 (Homo sapiens). In words: Substrate activity at recombinant human N-terminal His-tagged SHIP2 (419 to 832 residues) expressed in Escherichia coli Rosetta2 (DE3) cells assessed as 1,2-diOH-Bz(3,4)P2 product formation at 100 uM incubated for 2 hrs in presence of AS1949490 by fluorescence based HPLC analysis.

Experiment [7] has the same target. In words: Substrate activity at recombinant human N-terminal His-tagged SHIP2 (419 to 832 residues) expressed in Escherichia coli Rosetta2 (DE3) cells assessed as 3-OH-Bz(1,2,4)P3 product formation at 100 uM incubated for 2 hrs in presence of AS1949490 by fluorescence based HPLC analysis.
Experiment [8] shares this target. In words: Substrate activity at recombinant human N-terminal His-tagged SHIP2 (419 to 832 residues) expressed in Escherichia coli Rosetta2 (DE3) cells assessed as 1,3-Di-OH-Bz(2,4)P2 product formation at 100 uM incubated for 2 hrs in presence of AS1949490 by fluorescence based HPLC analysis.
For experiment [9] the target is unchanged. The experiment can be described thus: Substrate activity at recombinant human N-terminal His-tagged SHIP2 (419 to 832 residues) expressed in Escherichia coli Rosetta2 (DE3) cells assessed as 5-OH-Bz(1,2,4)P3 product formation at 100 uM incubated for 2 hrs by fluorescence based HPLC analysis.
For experiment [10] the target is unchanged. In words: Substrate activity at recombinant human N-terminal His-tagged SHIP2 (419 to 832 residues) expressed in Escherichia coli Rosetta2 (DE3) cells assessed as 5-OH-Bz(1,2,4)P3 product formation at 100 uM incubated for 2 hrs in presence of INS(1,3,4,5)P4 by fluorescence based HPLC analysis.
For experiment [11] the target is unchanged. In words: Substrate activity at recombinant human N-terminal His-tagged SHIP2 (419 to 832 residues) expressed in Escherichia coli Rosetta2 (DE3) cells assessed as 5-OH-Bz(1,2,4)P3 product formation at 100 uM incubated for 2 hrs in presence of AS1949490 by fluorescence based HPLC analysis.
The target is the same in experiment [12]. In words: Substrate activity at recombinant human N-terminal His-tagged SHIP2 (419 to 832 residues) expressed in Escherichia coli Rosetta2 (DE3) cells assessed as 5-OH-Bz(1,2,4)P3 product formation at 100 uM incubated for 2 hrs with 100 nM to 1 mM of SHIP2 by fluorescence based HPLC analysis.
The target is the same in experiment [13]. The experiment can be described thus: Substrate activity at recombinant human N-terminal His-tagged SHIP2 (419 to 832 residues) expressed in Escherichia coli Rosetta2 (DE3) cells assessed as 5-OH-Bz(1,2,4)P3 product formation at 100 uM measured upto 4 hrs by fluorescence based HPLC analysis.
For experiment [14] the target is unchanged. The experiment can be described thus: Substrate activity at recombinant human N-terminal His-tagged SHIP2 (419 to 832 residues) expressed in Escherichia coli Rosetta2 (DE3) cells assessed as 5-OH-Bz(1,2,4)P3 product formation at 100 uM incubated for 12 hrs by fluorescence based HPLC analysis.

Type II inositol 1,4,5-trisphosphate 5-phosphatase, sequence (P32019 whole entry, the tested form may be a part): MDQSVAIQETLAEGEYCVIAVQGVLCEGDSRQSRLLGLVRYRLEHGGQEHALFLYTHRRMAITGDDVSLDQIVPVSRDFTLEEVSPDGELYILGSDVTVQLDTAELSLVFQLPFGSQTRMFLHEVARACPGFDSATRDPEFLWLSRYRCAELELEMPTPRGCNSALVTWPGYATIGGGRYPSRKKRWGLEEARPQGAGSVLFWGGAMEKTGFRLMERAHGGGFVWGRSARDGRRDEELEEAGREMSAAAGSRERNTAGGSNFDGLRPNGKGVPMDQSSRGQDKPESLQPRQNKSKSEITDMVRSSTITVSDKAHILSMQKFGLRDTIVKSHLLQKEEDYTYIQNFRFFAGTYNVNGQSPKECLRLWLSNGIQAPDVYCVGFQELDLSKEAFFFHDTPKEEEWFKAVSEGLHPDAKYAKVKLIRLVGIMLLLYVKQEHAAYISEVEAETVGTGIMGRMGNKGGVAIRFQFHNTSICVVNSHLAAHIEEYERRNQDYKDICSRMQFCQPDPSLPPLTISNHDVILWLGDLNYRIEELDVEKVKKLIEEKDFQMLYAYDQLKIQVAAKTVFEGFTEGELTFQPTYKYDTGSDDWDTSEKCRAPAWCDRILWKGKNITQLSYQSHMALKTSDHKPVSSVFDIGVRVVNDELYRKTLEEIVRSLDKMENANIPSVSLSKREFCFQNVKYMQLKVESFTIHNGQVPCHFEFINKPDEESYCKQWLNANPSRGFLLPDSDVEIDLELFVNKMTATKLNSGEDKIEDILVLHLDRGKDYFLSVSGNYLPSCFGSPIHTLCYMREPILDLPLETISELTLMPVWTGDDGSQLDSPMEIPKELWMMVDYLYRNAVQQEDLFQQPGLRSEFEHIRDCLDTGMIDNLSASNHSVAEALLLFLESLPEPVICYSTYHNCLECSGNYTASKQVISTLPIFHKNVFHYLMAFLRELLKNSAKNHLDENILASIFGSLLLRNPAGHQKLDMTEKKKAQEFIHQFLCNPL

For the compound `O=P(O)(O)Oc1cccc(OP(=O)(O)O)c1OP(=O)(O)O`, the IC50 in experiment [1] is 33.5 µM; in experiment [2], 86 µM; in experiment [3], 14.2 µM; in experiment [4], more than 1000 µM. For the same compound, in experiment [5], the outcome was Active.

On to `O=P(O)(O)Oc1ccc(OP(=O)(O)O)c(OP(=O)(O)O)c1`, for which the values for the IC50 in experiment [2] and in [3] were 14 µM and 7.02 µM, respectively. Also, in experiment [5], the outcome was Active.

On to `O=P(O)(O)Oc1ccc(OP(=O)(O)O)c(OP(=O)(O)O)c1OP(=O)(O)O`, for which the result in [6] and in experiment [5] was Active. Besides, the IC50 in experiment [2] is 98 µM; in experiment [3], 2.78 µM. For the same compound, the outcome in experiment [7] was inactive.

Consider `O=P(O)(O)Oc1ccc(OP(=O)(O)O)c(OP(=O)(O)O)c1O`, for which the result in experiment [6] was Active. For the same compound, the outcome in [8] was inactive.

Take `O=P(O)(O)Oc1cc(OP(=O)(O)O)c(OP(=O)(O)O)cc1OP(=O)(O)O`: the outcome in experiment [9], in experiment [10], in experiment [12], in experiment [13], in experiment [5] and in experiment [14] was Active. Also, the IC50 is 4 µM in [2] and 1.02 µM in experiment [3]. Further, in [11], the result was inactive.

As for `O=P(O)(O)Oc1cc(OP(=O)(O)O)c(OP(=O)(O)O)c(OP(=O)(O)O)c1`, the IC50 in experiment [2] worked out at 78 µM; in experiment [3], 1.01 µM. The outcome in experiment [5] was Active.

As for `O=P(O)(O)Oc1cc(OP(=O)(O)O)cc(OP(=O)(O)O)c1`, the IC50 in [2] is 16 µM; in [3], 11.3 µM. Further, the result in experiment [5] was Active.
